This passage reports GI50 and TGI results from PubChem BioAssay (NCI).

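96-well plates; 48 h exposure; 5 concentrations. Endpoints by linear interpolation between flanking doses. Not reached: highest tested concentration assigned. GI50 is the concentration that inhibits growth by half. At the TGI there is no net growth.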

Common to all, as to assay: DTP human tumour cell line panel, 48 h
Assay [1] concerns CAKI-1 renal.
For assay [2], the system named is TK-10 renal.
In assay [3] the test system is U251 CNS.
Assay [4] concerns OVCAR-5 ovarian.
For assay [5], the system named is SK-OV-3 ovarian.
The test system of assay [6] is UACC-62 melanoma.
Assay [7] relates to NCI-H522 lung.
Assay [8] deals with SF-295 CNS.
The test system of assay [9] is A549 NSCLC.
Assay [10] relates to IGROV1 ovarian.

What is called GI50 is the concentration that inhibits growth by half. The term TGI denotes the concentration at which net growth stops. Turning to `CCN(CC)c1ccc(C(=O)c2ccc(N(CC)CC)cc2)cc1`, the GI50 in assay [1] was 0.364 µM; in assay [2], 1.33 µM; in assay [3] it was 0.504 µM; in [4], 4.1 µM; in assay [5], 0.676 µM; in assay [6] it was 0.429 µM. Further, the GI50 in assay [7] is 0.278 µM; in [8] it was 0.289 µM; in [9], 0.607 µM; in assay [10], 0.602 µM. Also, the TGI in [1] is over 36.7 µM; in assay [2] it was 68.9 µM; in assay [3], 23.2 µM; in [4], over 100 µM; in assay [5], 56.8 µM; in assay [6] it was over 100 µM. For the same molecule, the concentration for total growth inhibition (TGI) in [7] is 1.67 µM; in assay [8], 4.17 µM; in [9], over 58.1 µM; in [10], over 100 µM.

`C=C(c1ccccc1)[C@@]1(O)CC[C@@H]1N(CC#N)Cc1ccccc1`: the TGI in assay [1] is 45.7 µM; in assay [2] it was 35.5 µM; in assay [3] it was over 100 µM; in assay [4] it was over 100 µM; in assay [5] it was over 100 µM; in assay [6], 32.1 µM. The TGI was 47.8 µM in assay [7], over 100 µM in assay [8], over 73.5 µM in assay [9] and 72.6 µM in [10].

As for `Cn1cc2ccccc2c1-c1nc(F)nc(OCC(=O)[C@H]2CCC3[C@@H]4CCC5=CC(=O)CC[C@]5(C)C4[C@@H](O)C[C@@]32C)n1` (stereo not given in full), the TGI in [1] was 14 µM; in [2] it was 47.9 µM; in [3], 36 µM; in assay [4], over 73.7 µM; in [5] it was 37.3 µM; in assay [6] it was 36.7 µM. Moreover, the TGI in [7] was 31.2 µM; in assay [8], 44.4 µM; in [9], over 77.8 µM; in assay [10], 22.9 µM.

Turning to `CC(C)=CC1=C2C3=C(C(=O)C4(O)Oc5c(C)c6c7c(c5OC24C)[C@@H](C)CC[C@@H]7[C@@H](C)C[C@H]6C=C(C)C)C(C)CCC3C(C)C1` (stereo not given in full), the GI50 in assay [1], in assay [2], in assay [3], in [4], in assay [5] and in assay [6] was over 100 µM each time. Moreover, the GI50 in [7], in [8], in [9] and in assay [10] was over 100 µM throughout. The TGI in assay [1], in [2], in assay [3], in assay [4], in [5] and in [6] was over 100 µM throughout. Also, the TGI in [7], in assay [8], in assay [9] and in assay [10] was over 100 µM each time.

On to `C[N+]1=C(/C=C\C=C\c2ccccc2)C(C)(C)c2ccccc21`, for which the GI50 in assay [1] is 3.82 µM; in assay [2], 4.47 µM; in [3] it was 1.59 µM; in assay [4] it was 3.88 µM; in [5], 11.3 µM; in assay [6] it was 1.65 µM. Also, the GI50 is 0.863 µM in [7], 10.8 µM in [8], 4.43 µM in [9] and 2.06 µM in [10]. Further, the TGI in assay [1] is 13.5 µM; in assay [2], 15.7 µM; in assay [3], 4.18 µM; in assay [4] it was 13.3 µM; in assay [5] it was 23.9 µM; in assay [6], 4.98 µM. Besides, the TGI in assay [7] was 2.9 µM; in assay [8], 24.6 µM; in assay [9], 19.6 µM; in [10], 8.2 µM.

Take `Cc1cc2c([nH]c3ccccc32)c2c1OC(C)(C)C1C3CC(C)(C)Oc4c(C)cc5c6ccccc6n(c5c43)C21` (stereo not given): the TGI in assay [1], in assay [2], in assay [3], in [4], in assay [5] and in assay [6] was over 100 µM each time. Also, the concentration for total growth inhibition (TGI) in assay [7], in [8], in assay [9] and in [10] was over 100 µM throughout.

Turning to `N#CC1CCCCCCCCCCC(=O)N(CCCl)C1=O` (stereo not given), the TGI in assay [1], in assay [2], in assay [3], in [4], in assay [5] and in assay [6] was over 100 µM each time. Besides, the TGI in assay [7], in assay [8], in assay [9] and in assay [10] was over 100 µM in each case.

With `CN(C)CC/[N+]([O-])=C(/c1ccccc1)C12CC3CC(CC(C3)C1)C2`, the TGI in [1] amounted to 31.5 µM; in assay [2] it was 30.7 µM; in assay [3], 29.7 µM; in [4], 32 µM; in assay [5] it was 31.4 µM; in assay [6], 27.8 µM. The TGI was determined as 29.2 µM in assay [7], 27.5 µM in assay [8], 32.9 µM in assay [9] and 33.9 µM in assay [10].

For `O=C1c2ccccc2-c2c1c1ccccc1c(=O)n2CCCn1ccnc1`, the GI50 is 0.443 µM in [1]; 1.97 µM in assay [2]; 0.793 µM in assay [3]; 3.05 µM in assay [4]; 6.68 µM in assay [5]; 0.791 µM in assay [6]. Moreover, the GI50 in [7] is 2.14 µM; in [8], 0.896 µM; in assay [9] it was 1.87 µM; in assay [10], 2.86 µM. Moreover, the TGI is 2.05 µM in assay [1]; 6.83 µM in assay [2]; 6.83 µM in assay [3]; 53.6 µM in [4]; over 100 µM in assay [5]; 2.29 µM in assay [6]. Moreover, the TGI is over 100 µM in assay [7], 2.99 µM in [8], 4.74 µM in [9] and over 100 µM in assay [10].
